Source: ChEMBL document CHEMBL3259730, “Synthesis and biological evaluation of 2,3-diaryl isoquinolinone derivatives as anti-breast cancer agents targeting ERα and VEGFR-2” (Bioorg Med Chem Lett, 2014)

Legend:
MCF7 = experiment: Antiproliferative activity against human MCF7 cells after 48 hrs by MTT assay; format: functional, cell-based; conditions: MCF7, 48 h
[1] = target: Vascular endothelial growth factor receptor 2 (Homo sapiens) (UniProt P35968); conditions: at 0.1 mg/mL;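 further: VEGFR-2 inhibition read out by HTRF after 1 h, with the receptor's origin stated as unknown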
Chain of Vascular endothelial growth factor receptor 2 (Homo sapiens) (P35968 whole entry): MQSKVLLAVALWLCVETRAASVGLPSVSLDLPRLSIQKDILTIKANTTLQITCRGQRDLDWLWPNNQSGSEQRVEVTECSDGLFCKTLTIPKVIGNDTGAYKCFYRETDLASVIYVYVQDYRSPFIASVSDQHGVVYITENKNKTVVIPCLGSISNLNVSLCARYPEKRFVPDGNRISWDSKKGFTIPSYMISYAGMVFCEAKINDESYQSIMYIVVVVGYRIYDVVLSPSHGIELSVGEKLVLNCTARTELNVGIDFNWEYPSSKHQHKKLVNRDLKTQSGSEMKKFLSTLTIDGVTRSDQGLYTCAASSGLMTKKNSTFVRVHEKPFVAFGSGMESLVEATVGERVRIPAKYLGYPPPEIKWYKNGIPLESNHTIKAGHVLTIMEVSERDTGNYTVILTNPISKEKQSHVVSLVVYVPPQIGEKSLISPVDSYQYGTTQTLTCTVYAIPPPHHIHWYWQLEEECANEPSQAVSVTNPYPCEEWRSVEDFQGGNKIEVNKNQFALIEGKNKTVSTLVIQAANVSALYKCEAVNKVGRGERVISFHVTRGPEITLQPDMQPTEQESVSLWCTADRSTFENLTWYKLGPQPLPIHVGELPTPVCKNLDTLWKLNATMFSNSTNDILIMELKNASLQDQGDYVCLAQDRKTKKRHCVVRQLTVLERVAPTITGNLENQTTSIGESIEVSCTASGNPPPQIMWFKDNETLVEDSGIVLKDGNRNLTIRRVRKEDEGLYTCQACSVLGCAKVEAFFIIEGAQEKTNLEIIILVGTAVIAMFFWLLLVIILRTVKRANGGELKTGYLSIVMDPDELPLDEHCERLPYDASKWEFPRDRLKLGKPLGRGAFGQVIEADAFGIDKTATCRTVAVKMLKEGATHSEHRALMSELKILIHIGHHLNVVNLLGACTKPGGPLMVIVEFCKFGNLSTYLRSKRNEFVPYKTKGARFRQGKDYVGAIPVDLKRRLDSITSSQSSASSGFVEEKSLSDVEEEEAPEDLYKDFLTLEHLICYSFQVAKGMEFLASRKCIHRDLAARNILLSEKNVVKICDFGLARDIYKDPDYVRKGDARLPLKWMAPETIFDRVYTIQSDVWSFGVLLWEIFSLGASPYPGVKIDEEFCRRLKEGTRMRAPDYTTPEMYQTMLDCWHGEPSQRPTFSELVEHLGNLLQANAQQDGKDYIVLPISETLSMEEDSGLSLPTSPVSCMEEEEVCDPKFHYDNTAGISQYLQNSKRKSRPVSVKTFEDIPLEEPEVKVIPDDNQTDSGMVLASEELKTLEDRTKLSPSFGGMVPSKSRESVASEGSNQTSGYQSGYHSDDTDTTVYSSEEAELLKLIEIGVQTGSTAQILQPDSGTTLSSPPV
Description: Inhibition of VEGFR-2 (unknown origin) at 0.1 mg/ml after 1 hr by HTRF assay

Chorioallantoic membrane = experiment: Antiangiogenic activity in Chicken chorioallantoic membrane after 72 hrs relative to control; format: functional, cell membranes; conditions: Gallus gallus

| Compound | IC50 (MCF7) [µM] | inhibition [1] [%] | inhibition (Chorioallantoic membrane) |
| --- | --- | --- | --- |
| COc1ccc(-c2cc3ccc(OC)cc3c(=O)n2-c2ccc(OCCN3CCCC3)cc2)cc1 | 863 | 83.8 |  |
| O=c1c2cc(O)ccc2cc(-c2ccc(O)cc2)n1-c1ccc(OCCN2CCCCC2)cc1 | 3.63 | 84.8 |  |
| CCN(CC)CCOc1ccc(-n2c(-c3ccc(OC)cc3)cc3ccc(OC)cc3c2=O)cc1 | 383 | 92.5 |  |
| COc1ccc(-c2cc3ccc(OC)cc3c(=O)n2-c2ccc(OCCCN3CCCCC3)cc2)cc1 | > 1000 | 72.8 |  |
| COc1ccc(-c2cc3ccc(OC)cc3c(=O)n2-c2ccc(OCCCN3CCCC3)cc2)cc1 | 479 | 98.5 |  |
| CC/C(=C(\c1ccccc1)c1ccc(OCCN(C)C)cc1)c1ccccc1 [TAMOXIFEN] | 1.89 |  |  |
| COc1ccc(-c2cc3ccc(OC)cc3c(=O)n2-c2ccc(OCCN3CCOCC3)cc2)cc1 | > 1000 | 51.2 |  |
| COc1ccc(-c2cc3ccc(OC)cc3c(=O)n2-c2ccc(OCCN(C)C)cc2)cc1 | > 1000 | 66.1 |  |
| COc1ccc(-c2cc3ccc(OC)cc3c(=O)n2-c2ccc(OCCN3CCN(C)CC3)cc2)cc1 | 429 | 79.4 |  |

Continued by falling IC50 (MCF7), values first:

| IC50 (MCF7) [µM] | inhibition [1] [%] | Compound | inhibition (Chorioallantoic membrane) |
| --- | --- | --- | --- |
| 322 | 65.3 | COc1ccc(-c2cc3ccc(OC)cc3c(=O)n2-c2ccc(OCCN3CCCCC3)cc2)cc1 |  |
| 18.9 | 79.4 | CN(C)CCOc1ccc(-n2c(-c3ccc(O)cc3)cc3ccc(O)cc3c2=O)cc1 |  |
| 12.7 | 48.3 | O=c1c2cc(O)ccc2cc(-c2ccc(O)cc2)n1-c1ccc(OCCCN2CCCC2)cc1 |  |
| 11.8 | 49.9 | O=c1c2cc(O)ccc2cc(-c2ccc(O)cc2)n1-c1ccc(OCCN2CCCC2)cc1 |  |
| 9.45 | 103 | CN1CCN(CCOc2ccc(-n3c(-c4ccc(O)cc4)cc4ccc(O)cc4c3=O)cc2)CC1 | Dose-dependent effect |
| 2.73 | 100 | O=c1c2cc(O)ccc2cc(-c2ccc(O)cc2)n1-c1ccc(OCCCN2CCCCC2)cc1 | Dose-dependent effect |
